Experimental data as given in publication PMC12736451, “Autophagy-Targeting Stapled Peptide Utilizes Macropinocytosis for Cell Entry to Potentiate Anti-Proliferative Autosis in Small-Cell Lung Cancer” (Pharmaceutics, 2025).
Positions of bridges follow the written chain, without caps; N, C: chain ends. Non-standard residues stand in square brackets, D forms with d. Residues, ends and D or L forms follow the SMILES beside them. *: point of attachment. R8 = C=CCCCCCC[C@@](C)(N)C(=O)O; S5 = C=CCCC[C@](C)(N)C(=O)O; Cbz = O=C(OCc1ccccc1)*; CH2F = FC*

Tests used:
SHP-77 cells [1] = details: for rescue of Tat-SP4-induced cell death by cell death program inhibitor: 10 μM Tat-SP4, 24 h, trypan blue exclusion; for rescue of Tat-SP4-induced cell death by cell death program inhibitor / rescue of Tat-SP4-induced cell death by uptake pathway inhibitor: n = 3
Procedure: (§1) Cell viability was measured by a trypan blue exclusion assay following the standard protocol provided by the manufacturer. SHP-77 cells and H146 cells were plated into 96-well plates at a density of 2 × 10^4 cells/well. Upon cell attachment, cells were treated with the graded concentrations of Tat-SP4 for 24 h. The IC50 value was calculated from the curve fitted to concentration–response data sets. All experiments were repeated in triplicate, and the mean was calculated. For the 5-day growth curve, cells were seeded into a 24-well plate at 2.5 × 10^4 cells/well for SHP-77 and H146 cells. Cells were treated with 10 μM Tat-SP4. Cells were allowed to grow for up to 5 days post-treatment, and the viable cell number was checked every 24 hours with the trypan blue exclusion assay. For cell death rescue assays, SHP-77 cells were first plated overnight in 96-well plates. Tat-SP4 was added to the cells, together with inhibitors for apoptosis, ferroptosis, necroptosis, or autosis. After 24 h treatment, the cell viability was measured by the trypan blue exclusion assay.
Figure 3 Cell death induced by Tat-SP4 is rescued by an inhibitor of autosis but not by inhibitors for other cell death programs. (A) Flow cytometry analysis using Annexin V FITC-PI staining was conducted on SHP-77 cells after indicated hours of treatment with the Tat-SP4. […] (B) In the absence or presence of Z-VAD-FMK, SHP-77 cells treated with Tat-SP4 or cisplatin for 24 h. (C) SHP-77 cells were pretreated with ferroptosis inhibitor, ferrostatin-1, followed by 10 μM Tat-SP4 or 5 μM Erastin treatment for 24 h. […] (D) SHP-77 cells were treated with Tat-SP4 at 10 μM for 24 h, either in the presence or absence of necrostatin-1, respectively. […] (E) SHP-77 cells were pretreated with digoxin for 2 h, followed by the treatment of Tat-SP4 for 12 h. Cell viability was measured by trypan blue exclusion assay. Data are presented as mean ± SEM (n = 3). ** p < 0.01, **** p < 0.0001; unpaired t-test. TEXT PRINTED IN THE PICTURE: (A) Tat-SP4: Q1-UL 15.9% (10μM; 3h); Dead 30.5% (10μM; 3h); Live 48.8% (10μM; 3h); Apoptotic 4.8% (10μM; 3h); Q1-UL 51.4% (10μM; 6h); Dead 4.7% (10μM; 6h); Live 43.6% (10μM; 6h); Apoptotic 0.2% (10μM; 6h) DOUBTS OF THE COPYIST ABOUT THIS PICTURE: Tat-SP4 3h, Q1-UL 15.9%: very small print, 5 and 9 uncertain / Tat-SP4 3h, Dead 30.5%: very small print, 3 and 5 uncertain / Tat-SP4 3h, Live 48.8%: very small print, partly overlaid by the plot edge, both 8s uncertain / Tat-SP4 3h, Apoptotic 4.8%: very small print, 8 uncertain / Tat-SP4 6h, Q1-UL 51.4%: very small print, 5 uncertain / Tat-SP4 6h, Dead 4.7%: very small print, digits uncertain / Tat-SP4 6h, Live 43.6%: very small print, 3 and 6 uncertain / Tat-SP4 6h, Apoptotic 0.2%: very small print, digits uncertain
Figure 5 The cellular uptake process of Tat-SP4 is energy- and macropinocytosis-dependent. (A) Representative flow cytometry plot of SHP-77 cells stained with Rhod-SP4 at 10 μM at 4 °C, room temperature, and 37 °C for an hour, respectively. The fluorescence intensity of Rhod-SP4 increases with increasing temperature. (B) Mean fluorescence intensity of Rhod-SP4 from (A). The bar graph represents a single experiment without replicates. (C) Representative flow cytometry plot of SHP-77 cells stained with Rhod-SP4 at 10 μM at 37 °C for an hour, in the presence or absence of various inhibitors. AM, Amiloride; MβCD, Methyl-beta cyclodextrin. Cells were pretreated with different inhibitors for 30 min, followed by staining with Rhod-SP4 at 10 μM. (D) Mean fluorescence intensity of Rhod-SP4 from (C). The bar graph represents a single experiment without replicates. (E–G) Assess the effect of different inhibitors of cell-penetrating peptides uptake pathways on Tat-SP4-induced cell death. […] Data are presented as mean ± SEM (n = 3). * p < 0.05; unpaired t-test.

SHP-77 xenograft = SHP-77 xenograft model; format: in vivo; details: male nude mice, 40 mg/kg/day i.p., heart, liver, spleen, lung, kidney, stomach
Procedure: Animal experiments were carried out according to the guidelines of the Centralized Animal Facilities of the Hong Kong Polytechnic University. Male nude mice, 5–6 weeks in age, were purchased from the Centralized Animal Facilities of the Hong Kong Polytechnic University. Exponentially growing SHP-77 cells were harvested and resuspended in PBS with a concentration of 1 ×10^8 cells per ml. Mixed cell suspensions with Matrigel (Corning) in a 1:1 volume ratio with 5 × 10^5 SHP-77 cells were injected subcutaneously into the right-lower back of the mice. The tumor volume was calculated by the equation of Length × Width × Width/2. Mice were divided randomly into two groups (8 animals/group) when the tumor volume reached 50–60 mm^3. Tat-SP4 was administered intraperitoneally at 40 mg/kg every day, while PBS was administered to mice in the control group. The tumor volume was measured every other day. Treatments were continued until the tumor volume in the mice in the control group reached the maximum volume allowable according to the Centralized Animal Facilities of the Hong Kong Polytechnic University. At the end of the experiment, mice were sacrificed, and both tumors and vital organs were harvested for analysis. Tumor weights were measured after resection. […]
Figure 7 The anti-proliferative efficacy of Tat-SP4 in the SHP-77 xenograft model. […] The tumor volume was recorded every other day. […]

in vitro = details: human, Beas-2B cells (normal bronchial epithelial)
Procedure: as §1
(§2) (A) Trypan blue exclusion assay to assess the cytotoxicity IC50 of Tat-SP4 in SHP-77 and H146 cell lines. Cells were treated with Tat-SP4 at a series of concentrations for 24 h. The number of viable cells was determined manually using a hemocytometer and the trypan blue dye exclusion method.

SHP-77 cells [2] = test: Trypan blue exclusion cell viability assay, 24 h; format: cell-based; details: 24 h treatment, triplicate, mean, read-out: cytotoxicity IC50
Procedure: as §1, §2

H146 cells = test: Trypan blue exclusion cell viability assay, 24 h; format: cell-based; details: 24 h treatment, triplicate, mean, read-out: cytotoxicity IC50
Procedure: as §1, §2

SHP-77 cells [3] = test: Seahorse XF Mito Stress Test, oxygen consumption rate; format: cell-based; details: digoxin pretreatment followed by Tat-SP4
Procedure: Oxygen consumption in intact cells was assessed using an XFe24 Extracellular Flux Analyzer (Agilent, Santa Clara, CA, USA) following the manufacturer’s standard protocol. Briefly, one day prior to the experiment, an XF24 cell culture microplate was coated with 100 µg/mL poly-lysine and incubated in a CO2 incubator at 37 °C. On the same day, 1 mL of XF calibrant was added to each well of the utility plate to hydrate the sensor, and the XF24 sensor cartridge was incubated overnight in a non-CO2 incubator at 37 °C. On the day of the experiment, the coated XF24 cell culture microplate was washed with PBS and then allowed to air dry. Then, SHP-77 cells were seeded at a density of 1.5 × 10^5 cells per well in the coated XF24 cell culture microplate with the XF assay medium containing 1 mM sodium pyruvate, 2 mM glutamine, and 10 mM glucose and incubated for 1 h in a non-CO2 incubator at 37 °C.
Figure 4 Tat-SP4 impairs mitochondrial function and OXPHOS activity. […] Cells were stained with TMRM for 30 min and analyzed using flow cytometry. […] Fluorescence intensity is directly proportional to the amount of ROS in the cell. (C) OCR was measured using the Mito Stress Test with Agilent Seahorse Analyzer. […] (D) Quantification of basal maximum respiration changes respiration after Tat-SP4 treatment and in (A). **** p < 0.0001. […]

SHP-77 cells [4] = test: Intracellular Ca2+ imaging with genetically encoded indicators; format: cell-based; details: 10 µM digoxin pretreatment 1 h, then 10 µM Tat-SP4
Procedure: Genetically encoded Ca^2+ indicators used in this study include mito-GCaMP5G, cyto-RCaMP1h, and G-CEPIA1er. SHP-77 cells were plated in 6-well plates to allow transfection. Cells were transfected with either mito-GCaMP5G, cyto-RCaMP1h, or G-CEPIA1er cDNA using Lipofectamine 2000 and incubated for 36 h. After transfection, cells were collected and evenly distributed into 24-well plates in HBSS buffer (Gibco) for imaging. Time-lapse fluorescence imaging was performed using an Olympus inverted epifluorescence microscope equipped with a ×20 objective and appropriate excitation/emission filter sets. Images were acquired every 3 s.
To monitor subcellular Ca^2+ dynamics, SHP-77 cells expressing mito-GCaMP5G, cyto-RCaMP1h, or G-CEPIA1er were imaged to capture Ca^2+ fluctuations in the mitochondria, cytosol, and endoplasmic reticulum, respectively. Tat-SP4 or other agonists were applied 60 s after the start of imaging. Fluorescence signals were quantified as ΔF/F0, where ΔF represents the change in fluorescence at each time point and F0 denotes the baseline fluorescence.
(A,B) SHP-77 cells were transfected with cyto-RCaMP1h (A) or mito-GCaAMP5G (B) for 36 h. […] SHP-77 cells were pretreated with 10µM digoxin for 1 h, followed by the stimulation of Tat-SP4.

CCOC(=O)c1ccc(NC2CCCCC2)c(N)c1 [Ferrostatin-1]
rescue of Tat-SP4-induced cell death by cell death program inhibitor (SHP-77 cells [1]): did not rescue

CN1C(=O)C(Cc2c[nH]c3ccccc23)NC1=S (stereo not shown) [Necrostatin-1]
rescue of Tat-SP4-induced cell death by cell death program inhibitor (SHP-77 cells [1]): did not rescue

CC(=O)N[C@@H](Cc1ccc(O)cc1)C(=O)NCC(=O)N[C@@H](CCCNC(=N)N)C(=O)N[C@@H](CCCCN)C(=O)N[C@@H](CCCCN)C(=O)N[C@@H](CCCNC(=N)N)C(=O)N[C@@H](CCCNC(=N)N)C(=O)N[C@@H](CCC(N)=O)C(=O)N[C@@H](CCCNC(=N)N)C(=O)N[C@@H](CCCNC(=N)N)C(=O)N[C@@H](CCCNC(=N)N)C(=O)N[C@@H](CCCNC(=N)N)C(=O)N[C@@H](CC(C)C)C(=O)N[C@@H](CO)C(=O)N[C@@H](CCC(=O)O)C(=O)N[C@@H](CC(C)C)C(=O)N[C@]1(C)CCCCCCC=CCCC[C@@](C)(C(=O)N[C@@H](C)C(N)=O)NC(=O)[C@H](CCCNC(=N)N)NC(=O)[C@H](CCC(N)=O)NC(=O)[C@H](CCCCN)NC(=O)[C@H](CCC(=O)O)NC(=O)[C@H](CCCNC(=N)N)NC(=O)[C@H](CC(=O)O)NC1=O [Tat-SP4] (Ac-YGRKKRRQRRRRLSEL[R8]DREKQR[S5]A-NH2; staple 17-24)
body weight and gross morphology of major organs (SHP-77 xenograft): no abnormal changes
IC50 at 24 h (in vitro): 94.9 µM
IC50 (SHP-77 cells [2]): 7.66 µM
IC50 (H146 cells): 17.6 µM

COC(=O)C[C@H](NC(=O)[C@H](C)NC(=O)[C@@H](NC(=O)OCc1ccccc1)C(C)C)C(=O)CF [Z-VAD-FMK] (Cbz-Val-Ala-Asp(OMe)-CH2F)
rescue of Tat-SP4-induced cell death by cell death program inhibitor (SHP-77 cells [1]): had no effect
rescue of cisplatin-induced apoptotic cell death (SHP-77 cells [1]; cisplatin 24 h): rescued

N=C(N)NC(=O)c1nc(Cl)c(N)nc1N [amiloride, Amiloride]
rescue of Tat-SP4-induced cell death by uptake pathway inhibitor (SHP-77 cells [1]): readily rescued cell death

C[C@H]1O[C@@H](O[C@H]2[C@@H](O)C[C@H](O[C@H]3[C@@H](O)C[C@H](O[C@H]4CC[C@@]5(C)[C@H](CC[C@@H]6[C@@H]5C[C@@H](O)[C@]5(C)[C@@H](C7=CC(=O)OC7)CC[C@]65O)C4)O[C@@H]3C)O[C@@H]2C)C[C@H](O)[C@@H]1O [digoxin, Digoxin]
basal and maximum OCR levels after Tat-SP4 with digoxin pretreatment (SHP-77 cells [3]): comparable to those for untreated controls
effect on Ca2+ influx triggered by Tat-SP4 (cyto-RCaMP and mito-GCaMP5G) (SHP-77 cells [4]): completely abolished

Heparin
rescue of Tat-SP4-induced cell death by uptake pathway inhibitor (SHP-77 cells [1]): readily rescued cell death

Methyl-beta-cyclodextrin [MβCD]
rescue of Tat-SP4-induced cell death by uptake pathway inhibitor (SHP-77 cells [1]): showed no such effect
